The assay has as its target T1, PI-PLC (B. cereus) (Bacillus cereus, UniProt P14262).
T1 construct: purchased SigmalAldrich (Deisenhofen, Germany)
As to the kind of experiment: PI-PLC (B. cereus) assay, AChE substrate, TX-114 partitioning. It counts as biochemical. How it is done: GPI-PLD (rat serum) was assayed according to “Hari et al. (1997) Biochim. Biophys. Acta 1355: 293-302” by incubation with 10 μl of human placental aP solution (100 U/ml in 10 mM Hepes/NaOH, pH 7.0, 150 mM NaCl) in 100 μl of 200 mM Tris/maleate (pH 7.0) and 1% Nonidet P-40 for 10 min at 37° C. and subsequent termination of the reaction by addition of 0.4 ml of ice-cold stop buffer (10 mM Hepes/NaOH, pH 7.0, 150 mM NaCl, 0.1 mM MgCl2 and 0.01 mM zinc acetate). GPI-PLC (T. brucei) was assayed as described in “Mensa-Wilmot et al. (1995) Methods Enzymol. 250: 641-655” by incubation with 5 μl of human placental aP solution (see above) in 50 μl of 50 mM Tris/HCl (pH 8.0), 0.25% Nonidet P-40 and 5 mM EDTA for 30 min at 37° C. and subsequent termination of the reaction by addition of 0.45 ml of stop buffer. PI-PLC (B. cereus) and adipocyte GPI-PLC (5-25 μg plasma membranes or hc/lcDIGs) were assayed by incubation with 10 μl of bovine erythrocyte acetylcholinesterase (AChE) solution (12 U/ml in 10 mM Tris/HCl, pH 7.4, 144 mM NaCl, 0.1% TX-100) in 100 μl of 20 mM Hepes/KOH (pH 7.8), 144 mM NaCl, 0.1% TX-100, 0.2 mM MgCl2 for 1 h at 25° C. and subsequent termination by adding 5 μl of glacial acetic acid and then 0.4 ml of 10 mM Tris/HCl (pH 7.4), 144 mM NaCl. Each reaction mixture was subjected to TX-114 partitioning (see below).
Pelleted hc/lcDIGs (10-50 μg protein) or (G)PI-PLC reaction mixtures (0.5 ml) were separated into amphiphilic and hydrophilic proteins using partitioning between TX-114-enriched and depleted phases according to “Bordier, C., (1981) J. Biol, Chem. […]” by suspending in 1 ml of ice-cold TX-114 (1%), 25 mM Tris/HCl (pH 7.4), 144 mM NaCl or mixing with 0.5 ml of ice-cold TX-114 (2%), respectively. After incubation for 1 h on ice, the mixture was layered onto a cushion of 0.4 ml of 0.25 M sucrose and 25 mM Tris/HCl (pH 7.4) on ice. Phase separation was induced by warming up to 37° C. and subsequent centrifugation (10,000×g, 1 min). After re-extraction of the lower TX-114-enriched phase, aliquots of the pooled upper TX-114-depleted phase were measured for 5′-Nuc, aP and AChE activity or precipitated (15 polyethylene glycol 4000) for SDS-PAGE analysis.
Table 1: GPI-PLC of hcDIGs from rat adipocytes, GPI-PLC from T. brucei and PI-PLC from B. cereus were incubated with solubilized and partially purified bovine erythrocyte AChE or human placental aP in the absence or presence of increasing concentrations (0.05 μM-1 mM) of the inhibitors indicated under appropriate conditions (see Materials and Methods). Cleavage rate was calculated from the amount of hydrophilic AChE and aP activity recovered with the TX-114-depleted phase upon TX-114 partitioning. Means+SD from at least 3 independent incubations with partitioning/enzyme assays in quadruplicate are given. n.a., not applicable.
Purified (G)PI-PLC/D from B. cereus, rat serum and T. brucei as well as total plasma membranes (PM) and hc/lcDIGs prepared from isolated rat adipocytes were incubated (10 min, 30° C.) with increasing concentrations of GPI-2350 and then assayed for amphiphilic-to-hydrophilic conversion of AChE and aP by TX-114 partitioning (see Materials and Methods). The lipolytic activity was calculated as % of the control reaction in the absence of GPI-2350 (set at 100%). Means+SD of at least 4 independent incubations with AChE and aP activity measurements in triplicate each are given.

T1 sequence (P14262 32-329 limits assumed): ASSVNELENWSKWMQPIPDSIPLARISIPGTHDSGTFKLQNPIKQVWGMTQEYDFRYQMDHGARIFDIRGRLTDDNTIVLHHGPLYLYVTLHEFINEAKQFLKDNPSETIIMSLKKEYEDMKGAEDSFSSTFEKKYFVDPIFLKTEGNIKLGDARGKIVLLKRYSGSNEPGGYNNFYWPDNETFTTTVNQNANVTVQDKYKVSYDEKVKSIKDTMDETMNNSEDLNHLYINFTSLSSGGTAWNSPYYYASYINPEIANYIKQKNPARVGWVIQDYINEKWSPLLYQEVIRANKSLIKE

Consider `CCCCCCCCCCCCP1(=O)O[C@@H]2[C@H](O)[C@@H](O)[C@H](O)[C@@H](O)[C@@H]2O1` (stereo partly shown) [GPI-2350, myo-inositol-1,2-cyclo-dodecylphosphonic acid], for which the half-maximal inhibitory concentration (IC50) is, setting by setting: (IC50, Table 1, inhibitor 0.05 μM-1 mM) 10 to 20 µM; (apparent IC50, FIG. 2) 10 µM. Also, under “read-out: inhibition % at 1 mM”, the inhibition at 1000 µM stood at 75%. The “reversal of half-maximal inhibition” value (upon 10-fold dilution with excess of fresh GPI-protein substrate) is reported as “completely reversed”.
